Patent US12370164B2, “Chlorogenic acid composition for promoting a healthy body weight” (Vidya Herbs, Inc., priority 2017, dated 2025)
“And” between values parts separate entries of the source, which are not always exact repeats. Identical values can stand only once.

Key:
[1] = system: Salmonella typhimurium TA 100; assay type: cell-based; settings: TA 100, +s9, positive control, concentration not given
Excerpt: This assay helps to identify substances that can produce genetic damage that leads to gene mutations. Mutant strains of Salmonella typhimurium that are used in AMES assay cannot synthesize histidine, and are very susceptible to additional mutations because they lack the normal repair mechanisms found in bacteria. These mutant strains are more permeable than wild-type bacteria to external chemicals, including potential mutagens. In order for these cells to survive on a plate that lacks histidine, they must regain the ability to synthesize histidine by undergoing another mutation that corrects the original mutation that prevented the production of the missing enzyme. This type of mutation is known as a back mutation, or reversion, because this second mutation returns the mutant to the wild-type (prototrophic) phenotype. This reversion can happen spontaneously due to incorrect DNA replication or as the result of a mutagen.
In this assay specific strains of the bacteria Salmonella typhimurium (TA 98, TA 100) were used to detect mutations. […]
Briefly, 0.5 ml of S9 mix (or 0.1 M phosphate buffer, pH 7.4), 0.1 ml of bacterial culture and 0.1 ml of test solution (or solvent) were added to each tube. […] After incubation for approximately 48 h the revertant colonies were counted.

[2] = system: Salmonella typhimurium TA 98; assay: Ames Salmonella mutagenicity test, strain TA 98; assay type: cell-based; settings: TA 98, +s9, positive control, concentration not given
[3] = system: calf thymus DNA; assay: Protective effect on DNA scission induced by hydroxyl radical
Description: In this assay hydroxyl radicals are typically generated within a mixture of ascorbic acid, H2O2 and Fe3+-ethylenediaminetetracetic acid (EDTA); those radicals that are not scavenged by other components of the reaction mixture will eventually attack deoxyribose, thus degrading it into a series of fragments.
The experiment was conducted using calf thymus DNA. Briefly, the sample was dissolved in ethanol at 1 mg/mL. 50 μl of different concentration of sample was then separately taken into mini tubes followed by addition of 400 μL of phosphate buffer (0.2 mol/L, pH 7.4). Subsequently, 50 μL DNA sodium, 50 μL H2O2, 50 μL FeCl3 and 50 μL Na2EDTA (1 mmol/L) were added. The reaction was initiated by adding 50 μL ascorbic acid (18 mmol/L) and the total volume of the reaction mixture was adjusted to 800 μL with buffer. After incubation in a water bath at 55° C. for 20 min, the reaction was terminated by adding 250 μL TCA.
The color was then developed by addition of 150 μL of TBA and heating in an oven at 105° C. for 15 min. The mixture was cooled and absorbance was measured at 532 nm against the buffer (as blank). The percent of protection against DNA damage is expressed Protective effect %=(1−A/A0)×100 Where A0 is the absorbance of the mixture without sample, and A is the absorbance of the mixture with sample. Results

[4] = DPPH radical scavenging assay
Description: The free radical scavenging capacity of the test sample was determined using DPPH scavenging assay. DPPH solution was prepared in 95% methanol. Freshly prepared DPPH solution was taken in test tubes and different concentration of test samples were added and incubated for 20 min. The absorbance was read at 517 nm using a spectrophotometer. Blank was prepared containing the same volume of reaction mixture without any tested samples. The percentage of scavenging was calculated using the formula: % Scavenging=Ac−As/Ac×100 Where AC was the absorbance of the control (blank) and AS was the absorbance in the presence of the composition (Braca et al., 2001). Results

[5] = Superoxide anion scavenging activity

Compound: Nc1ccc2cc3ccccc3cc2c1 [2AF, 2-aminoanthracene]
- Revertant colonies/plate [1]: 2737 ± 4.9 colonies/plate
- Revertant colonies/plate [2]: 1560 ± 3.53 colonies/plate

Compound: COc1ccc(O)c(C(C)(C)C)c1 [BHA]
- % protective effect against DNA damage ([3]; 10 μg/ml): 15.79 ± 0.89%
- % protective effect against DNA damage ([3]; 20 μg/ml): 19.25 ± 1.09%
- % protective effect against DNA damage ([3]; 40 μg/ml): 32.50 ± 2.12%
- % protective effect against DNA damage ([3]; 60 μg/ml): 39.16 ± 0.33%
- % protective effect against DNA damage ([3]; 80 μg/ml): 43.04 ± 0.29%
- % protective effect against DNA damage ([3]; 100 μg/ml): 51.37% and 51.37 ± 4.06%

Compound: O=C1O[C@H]([C@@H](O)CO)C(O)=C1O [Ascorbic acid]
- % inhibition (DPPH scavenging) ([4]; 20 μg/ml): 83.21%
- Absorbance @517 nm ([4]; 20 μg/ml): 0.046
- % inhibition (DPPH scavenging) ([4]; 40 μg/ml): 90.88%
- Absorbance @517 nm ([4]; 40 μg/ml): 0.025
- % inhibition (DPPH scavenging) ([4]; 60 μg/ml): 94.53%
- Absorbance @517 nm ([4]; 60 μg/ml): 0.015
- % inhibition (DPPH scavenging) ([4]; 80 μg/ml): 94.89%
- Absorbance @517 nm ([4]; 80 μg/ml): 0.014
- % inhibition (DPPH scavenging) ([4]; 100 μg/ml): 96.72%
- Absorbance @517 nm ([4]; 100 μg/ml): 0.009
- % inhibition (DPPH scavenging) ([4]; 100 μg/ml, listed as ascorbic acid): 96.71%
- % inhibition (superoxide scavenging) ([5]; 20 μg/ml): 84.80%
- Absorbance @517 nm (superoxide scavenging) ([5]; 20 μg/ml): 0.038
- % inhibition (superoxide scavenging) ([5]; 40 μg/ml): 85.20%
- Absorbance @517 nm (superoxide scavenging) ([5]; 40 μg/ml): 0.037
- % inhibition (superoxide scavenging) ([5]; 60 μg/ml): 88.40%
- Absorbance @517 nm (superoxide scavenging) ([5]; 60 μg/ml): 0.029
- % inhibition (superoxide scavenging) ([5]; 80 μg/ml): 89.20%
- Absorbance @517 nm (superoxide scavenging) ([5]; 80 μg/ml): 0.027
- % inhibition (superoxide scavenging) ([5]; 100 μg/ml): 89.60%
- Absorbance @517 nm (superoxide scavenging) ([5]; 100 μg/ml): 0.026
